In patent US20240293400A1, “NOVEL AZAINDOLE DERIVATIVES AS ANTIVIRAL AGENTS” (Centre National de la Recherche Scientifique, priority 2021, published 2024):

Assays:
Experiment in all cases: Kinase panel Z'-LYTE/Adapta SelectScreen
Format in all cases: biochemical
Conditions in all cases: 100 nM in 1% DMSO
[1] = target: CHUK (IKKalpha) (Homo sapiens (Human), UniProt O15111)
Method: (§1) The inhibitory activity of the compounds on a panel of kinases including, inter alia, AXL and FLT3 was evaluated by Thermo Fisher Scientific using Z′-LYTE® and Adapta® Select Screen technology.
(§2) The fluorescence-based biochemical test uses coupled enzymes and is based on the difference in sensitivity of the phosphorylated and non-phosphorylated peptides to proteolytic cleavage. The peptide substrate is labeled with 2 fluorophores—one at each end—allowing fluorescence transfer (FRET).
(§3) Compounds 1, 2 and 3 are tested in wells at the final concentration of 100 nM in 1% DMSO.

[2] = target: AURKB (Aurora B) (Homo sapiens (Human), UniProt Q96GD4)
Method: as §1, §2, §3

[3] = target: PDGFRB (PDGFR beta) (Homo sapiens (Human), UniProt P09619)
Method: as §1, §2, §3

[4] = target: JAK3 (Homo sapiens (Human), UniProt P52333)
Method: as §1, §2, §3

[5] = target: CSK (Homo sapiens (Human), UniProt P41240)
Method: as §1, §2, §3

[6] = target: TEK (Tie2) (Homo sapiens (Human), UniProt Q02763)
Method: as §1, §2, §3

[7] = target: RET (Homo sapiens (Human), UniProt P07949)
Method: as §1, §2, §3

[8] = target: KDR (VEGFR2) (Homo sapiens (Human), UniProt P35968)
Method: as §1, §2, §3

[9] = target: IKBKB (IKK beta) (Homo sapiens (Human), UniProt O14920)
Method: as §1, §2, §3

[10] = target: MAPK1 (ERK2) (Homo sapiens (Human), UniProt P28482)
Method: as §1, §2, §3

[11] = target: NTRK1 (TRKA) (Homo sapiens (Human), UniProt P04629)
Method: as §1, §2, §3

[12] = target: CSF1R (FMS) (Homo sapiens (Human), UniProt P07333)
Method: as §1, §2, §3

[13] = target: PRKAA (PKA) (Homo sapiens (Human), UniProt P17612)
Method: as §1, §2, §3

[14] = target: BTK (Homo sapiens (Human), UniProt Q06187)
Method: as §1, §2, §3

[15] = target: FGFR1 (Homo sapiens (Human), UniProt P11362)
Method: as §1, §2, §3

[16] = target: NTRK2 (TRKB) (Homo sapiens (Human), UniProt Q16620)
Method: as §1, §2, §3

[17] = target: JAK2 (Homo sapiens (Human), UniProt O60674)
Method: as §1, §2, §3

[18] = target: PTK2 (FAK) (Homo sapiens (Human), UniProt Q05397)
Method: as §1, §2, §3

[19] = target: NUK1 (ARK5) (Homo sapiens (Human), UniProt O60285)
Method: as §1, §2, §3

[20] = target: FLT1 (VEGFR1) (Homo sapiens (Human), UniProt P17948)
Method: as §1, §2, §3

[21] = target: MERTK (cMER) (Homo sapiens (Human), UniProt Q12866)
Method: as §1, §2, §3

[22] = target: ABL1 (Homo sapiens (Human), UniProt P00519)
Method: as §1, §2, §3

[23] = target: ROCK2 (Homo sapiens (Human), UniProt O75116)
Method: as §1, §2, §3

[24] = target: KIT (Homo sapiens (Human), UniProt P10721)
Method: as §1, §2, §3

[25] = target: TYRO3 (RSE) (Homo sapiens (Human), UniProt Q06418)
Method: as §1, §2, §3

[26] = target: SYK (Homo sapiens (Human), UniProt P43405)
Method: as §1, §2, §3

[27] = target: AURKA (Aurora A) (Homo sapiens (Human), UniProt O14965)
Method: as §1, §2, §3

[28] = target: ALK (Homo sapiens (Human), UniProt Q9UM73)
Method: as §1, §2, §3

[29] = target: SRC (Homo sapiens (Human), UniProt P12931)
Method: as §1, §2, §3

[30] = target: PLK1 (Homo sapiens (Human), UniProt P53350)
Method: as §1, §2, §3

[31] = target: TYK2 (Homo sapiens (Human), UniProt P29597)
Method: as §1, §2, §3

[32] = target: FLT4 (VEGFR3) (Homo sapiens (Human), UniProt P35916)
Method: as §1, §2, §3

[33] = target: ROS1 (Homo sapiens (Human), UniProt P08922)
Method: as §1, §2, §3

[34] = target: PDGFRA (PDGFR alpha) (Homo sapiens (Human), UniProt P16234)
Method: as §1, §2, §3

Sequence of NUK1 (ARK5) (O60285 whole entry): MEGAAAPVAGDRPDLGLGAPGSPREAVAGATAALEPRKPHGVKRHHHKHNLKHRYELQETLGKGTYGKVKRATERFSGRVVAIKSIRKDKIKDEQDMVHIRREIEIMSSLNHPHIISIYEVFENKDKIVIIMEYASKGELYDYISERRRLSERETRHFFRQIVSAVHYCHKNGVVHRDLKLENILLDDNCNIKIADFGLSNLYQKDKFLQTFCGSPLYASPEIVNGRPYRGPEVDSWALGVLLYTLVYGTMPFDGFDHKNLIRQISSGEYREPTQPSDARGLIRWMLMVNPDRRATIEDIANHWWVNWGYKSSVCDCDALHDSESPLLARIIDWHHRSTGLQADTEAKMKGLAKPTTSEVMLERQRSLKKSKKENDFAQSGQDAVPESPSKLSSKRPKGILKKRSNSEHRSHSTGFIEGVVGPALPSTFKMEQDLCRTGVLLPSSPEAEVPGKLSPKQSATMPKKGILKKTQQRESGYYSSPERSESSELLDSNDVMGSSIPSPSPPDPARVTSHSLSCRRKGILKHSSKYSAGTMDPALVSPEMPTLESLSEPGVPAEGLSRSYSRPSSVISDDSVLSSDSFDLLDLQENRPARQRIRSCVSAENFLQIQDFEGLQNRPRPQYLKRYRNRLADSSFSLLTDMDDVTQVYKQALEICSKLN
Sequence of PDGFRA (PDGFR alpha) (P16234 24-1089): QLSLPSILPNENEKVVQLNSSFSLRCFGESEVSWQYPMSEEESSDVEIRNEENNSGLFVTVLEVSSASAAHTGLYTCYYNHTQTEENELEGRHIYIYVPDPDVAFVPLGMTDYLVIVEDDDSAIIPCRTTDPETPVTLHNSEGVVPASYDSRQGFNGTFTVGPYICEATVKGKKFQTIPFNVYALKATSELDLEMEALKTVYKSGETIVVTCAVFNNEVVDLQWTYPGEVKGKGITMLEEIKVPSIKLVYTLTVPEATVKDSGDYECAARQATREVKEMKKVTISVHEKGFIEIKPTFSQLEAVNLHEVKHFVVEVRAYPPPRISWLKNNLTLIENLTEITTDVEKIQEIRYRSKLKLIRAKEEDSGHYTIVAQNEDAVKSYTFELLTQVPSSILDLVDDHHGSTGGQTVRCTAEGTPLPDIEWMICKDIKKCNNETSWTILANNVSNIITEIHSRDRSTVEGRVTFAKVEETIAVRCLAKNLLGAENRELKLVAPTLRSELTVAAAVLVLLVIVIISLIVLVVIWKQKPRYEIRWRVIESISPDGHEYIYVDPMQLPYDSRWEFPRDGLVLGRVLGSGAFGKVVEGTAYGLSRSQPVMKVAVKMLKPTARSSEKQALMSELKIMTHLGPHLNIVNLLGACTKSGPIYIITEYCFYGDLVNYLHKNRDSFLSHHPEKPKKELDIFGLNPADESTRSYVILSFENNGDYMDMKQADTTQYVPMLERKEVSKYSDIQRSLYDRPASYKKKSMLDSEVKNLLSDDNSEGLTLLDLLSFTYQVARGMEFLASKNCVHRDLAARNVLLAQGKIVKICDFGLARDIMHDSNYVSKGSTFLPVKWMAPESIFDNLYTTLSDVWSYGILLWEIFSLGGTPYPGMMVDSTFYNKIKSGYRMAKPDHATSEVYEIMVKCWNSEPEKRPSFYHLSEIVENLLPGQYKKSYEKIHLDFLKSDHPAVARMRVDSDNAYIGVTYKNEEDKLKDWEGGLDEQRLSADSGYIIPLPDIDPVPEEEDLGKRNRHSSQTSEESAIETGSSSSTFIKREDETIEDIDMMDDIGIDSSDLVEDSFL
Sequence of MAPK1 (ERK2) (P28482 whole entry): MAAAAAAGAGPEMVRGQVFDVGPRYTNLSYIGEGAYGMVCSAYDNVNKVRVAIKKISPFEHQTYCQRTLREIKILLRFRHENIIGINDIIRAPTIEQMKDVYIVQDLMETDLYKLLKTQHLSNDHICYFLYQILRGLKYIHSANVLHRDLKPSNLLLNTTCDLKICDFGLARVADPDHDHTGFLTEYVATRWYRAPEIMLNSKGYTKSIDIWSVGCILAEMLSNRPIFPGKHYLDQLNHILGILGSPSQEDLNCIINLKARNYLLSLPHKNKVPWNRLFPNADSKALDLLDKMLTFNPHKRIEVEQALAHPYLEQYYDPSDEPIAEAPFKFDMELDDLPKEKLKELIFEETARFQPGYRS
Sequence of IKBKB (IKK beta) (O14920 whole entry): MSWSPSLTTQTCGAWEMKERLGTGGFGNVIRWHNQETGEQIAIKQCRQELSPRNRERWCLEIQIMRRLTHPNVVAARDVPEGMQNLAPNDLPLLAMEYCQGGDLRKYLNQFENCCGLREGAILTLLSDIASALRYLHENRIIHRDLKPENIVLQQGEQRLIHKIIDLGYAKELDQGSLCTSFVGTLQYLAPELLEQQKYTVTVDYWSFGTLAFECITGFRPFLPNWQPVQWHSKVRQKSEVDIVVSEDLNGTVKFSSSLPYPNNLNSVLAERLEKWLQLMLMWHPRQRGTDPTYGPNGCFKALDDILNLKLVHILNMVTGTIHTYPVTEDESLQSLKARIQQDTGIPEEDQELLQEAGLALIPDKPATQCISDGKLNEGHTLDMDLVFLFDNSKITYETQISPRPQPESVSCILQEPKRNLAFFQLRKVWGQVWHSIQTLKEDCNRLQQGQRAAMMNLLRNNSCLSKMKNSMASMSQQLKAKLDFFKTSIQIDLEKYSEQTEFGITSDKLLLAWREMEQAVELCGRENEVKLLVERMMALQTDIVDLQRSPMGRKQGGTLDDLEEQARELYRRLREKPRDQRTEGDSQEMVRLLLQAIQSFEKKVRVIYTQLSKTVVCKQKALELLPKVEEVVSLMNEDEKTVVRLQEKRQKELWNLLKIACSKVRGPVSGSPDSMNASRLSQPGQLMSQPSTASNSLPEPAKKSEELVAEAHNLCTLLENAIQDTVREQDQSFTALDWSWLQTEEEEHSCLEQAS
Sequence of FLT4 (VEGFR3) (P35916 25-1363): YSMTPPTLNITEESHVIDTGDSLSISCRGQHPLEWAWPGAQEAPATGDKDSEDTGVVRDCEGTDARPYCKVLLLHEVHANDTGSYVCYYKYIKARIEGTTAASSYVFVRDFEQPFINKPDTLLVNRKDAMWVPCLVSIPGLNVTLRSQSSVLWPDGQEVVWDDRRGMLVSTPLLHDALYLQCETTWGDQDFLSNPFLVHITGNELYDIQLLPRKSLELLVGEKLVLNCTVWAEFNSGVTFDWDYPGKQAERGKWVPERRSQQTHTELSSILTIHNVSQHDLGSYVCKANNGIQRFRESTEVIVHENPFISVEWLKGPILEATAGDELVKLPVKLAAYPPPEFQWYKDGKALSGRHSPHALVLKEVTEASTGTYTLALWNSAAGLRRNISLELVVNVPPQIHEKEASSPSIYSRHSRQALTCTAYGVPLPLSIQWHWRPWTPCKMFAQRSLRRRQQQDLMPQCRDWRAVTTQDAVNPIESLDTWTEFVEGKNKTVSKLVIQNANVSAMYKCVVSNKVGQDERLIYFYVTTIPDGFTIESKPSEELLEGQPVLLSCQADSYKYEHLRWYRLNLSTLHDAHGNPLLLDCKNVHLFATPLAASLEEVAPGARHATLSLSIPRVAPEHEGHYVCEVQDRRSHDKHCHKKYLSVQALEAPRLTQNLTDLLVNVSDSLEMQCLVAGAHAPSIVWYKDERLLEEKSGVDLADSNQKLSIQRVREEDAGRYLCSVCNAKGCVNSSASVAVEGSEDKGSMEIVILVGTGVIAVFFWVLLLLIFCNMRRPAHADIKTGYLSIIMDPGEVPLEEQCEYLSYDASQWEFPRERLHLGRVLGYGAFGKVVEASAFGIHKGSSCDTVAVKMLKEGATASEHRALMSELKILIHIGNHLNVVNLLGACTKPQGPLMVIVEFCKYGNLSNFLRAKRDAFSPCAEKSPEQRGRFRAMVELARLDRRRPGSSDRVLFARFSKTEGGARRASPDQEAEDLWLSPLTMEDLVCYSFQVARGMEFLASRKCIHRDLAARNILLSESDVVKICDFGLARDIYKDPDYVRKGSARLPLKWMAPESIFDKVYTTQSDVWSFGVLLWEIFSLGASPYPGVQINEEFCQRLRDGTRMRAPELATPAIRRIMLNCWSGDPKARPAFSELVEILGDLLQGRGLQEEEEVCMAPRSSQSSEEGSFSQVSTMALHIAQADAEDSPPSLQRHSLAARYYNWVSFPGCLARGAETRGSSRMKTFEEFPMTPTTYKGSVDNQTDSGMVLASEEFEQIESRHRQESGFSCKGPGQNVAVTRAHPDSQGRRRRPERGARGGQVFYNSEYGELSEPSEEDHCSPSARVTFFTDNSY
Sequence of TYRO3 (RSE) (Q06418 41-890): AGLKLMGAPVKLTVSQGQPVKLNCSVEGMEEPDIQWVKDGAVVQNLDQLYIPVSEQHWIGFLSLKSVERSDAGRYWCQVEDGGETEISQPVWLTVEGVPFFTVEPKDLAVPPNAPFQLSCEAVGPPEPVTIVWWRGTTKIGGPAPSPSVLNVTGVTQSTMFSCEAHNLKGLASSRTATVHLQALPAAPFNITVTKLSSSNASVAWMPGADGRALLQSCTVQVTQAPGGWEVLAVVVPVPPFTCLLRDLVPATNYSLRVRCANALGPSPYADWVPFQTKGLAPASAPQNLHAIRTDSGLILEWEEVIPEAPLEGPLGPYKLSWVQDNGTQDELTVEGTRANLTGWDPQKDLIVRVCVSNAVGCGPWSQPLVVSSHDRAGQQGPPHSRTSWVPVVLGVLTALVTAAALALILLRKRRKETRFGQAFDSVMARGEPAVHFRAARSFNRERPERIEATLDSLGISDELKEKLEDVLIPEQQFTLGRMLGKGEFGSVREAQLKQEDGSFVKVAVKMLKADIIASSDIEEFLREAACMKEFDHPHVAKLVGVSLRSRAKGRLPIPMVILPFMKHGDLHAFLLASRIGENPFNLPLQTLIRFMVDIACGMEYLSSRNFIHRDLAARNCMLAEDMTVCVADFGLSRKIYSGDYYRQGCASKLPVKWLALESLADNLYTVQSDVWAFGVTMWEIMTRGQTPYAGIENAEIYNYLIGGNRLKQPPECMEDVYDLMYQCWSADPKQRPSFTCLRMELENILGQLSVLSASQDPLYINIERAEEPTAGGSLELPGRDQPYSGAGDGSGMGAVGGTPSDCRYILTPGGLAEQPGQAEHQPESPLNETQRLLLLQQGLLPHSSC

## CN1CCN(Cc2cccc(-c3cnc4[nH]cc(-c5cc(CNCCc6ccc(O)cc6)ccc5F)c4c3)c2)CC1 [Compound 1]
[1]
  Percentage inhibition CHUK (IKKalpha): 43%
[2]
  Percentage inhibition AURKB (Aurora B): 41%
[3]
  Percentage inhibition PDGFRB (PDGFR beta): 37%
[4]
  Percentage inhibition JAK3: 42%
[5]
  Percentage inhibition CSK: 7%
[6]
  Percentage inhibition TEK (Tie2): 13%
[7]
  Percentage inhibition RET: 84%
[8]
  Percentage inhibition KDR (VEGFR2): 85%
[9]
  Percentage inhibition IKBKB (IKK beta): 33%
[10]
  Percentage inhibition MAPK1 (ERK2): 11%
[11]
  Percentage inhibition NTRK1 (TRKA): 53%
[12]
  Percentage inhibition CSF1R (FMS): 62%
[13]
  Percentage inhibition PRKAA (PKA): 8%
[14]
  Percentage inhibition BTK: 12%
[15]
  Percentage inhibition FGFR1: 43%
[16]
  Percentage inhibition NTRK2 (TRKB): 61%
[17]
  Percentage inhibition JAK2: 19%
[18]
  Percentage inhibition PTK2 (FAK): 22%
[19]
  Percentage inhibition NUK1 (ARK5): 74%
[20]
  Percentage inhibition FLT1 (VEGFR1): 53%
[21]
  Percentage inhibition MERTK (cMER): 98%
[22]
  Percentage inhibition ABL1: 38%
[23]
  Percentage inhibition ROCK2: 16%
[24]
  Percentage inhibition KIT: 8%
[25]
  Percentage inhibition TYRO3 (RSE): 51%
[26]
  Percentage inhibition SYK: 4%
[27]
  Percentage inhibition AURKA (Aurora A): 14%
[28]
  Percentage inhibition ALK: 45%
[29]
  Percentage inhibition SRC: 19%
[30]
  Percentage inhibition PLK1: 4%
[31]
  Percentage inhibition TYK2: 5%
[32]
  Percentage inhibition FLT4 (VEGFR3): 64%
[33]
  Percentage inhibition ROS1: 64%
[34]
  Percentage inhibition PDGFRA (PDGFR alpha): 57%

## CN1CCN(Cc2cccc(-c3cnc4[nH]cc(-c5cc(CNCc6ccccc6)ccc5F)c4c3)c2)CC1 [Compound 2]
[1]
  Percentage inhibition CHUK (IKKalpha): 14%
[2]
  Percentage inhibition AURKB (Aurora B): 20%
[3]
  Percentage inhibition PDGFRB (PDGFR beta): 30%
[4]
  Percentage inhibition JAK3: 18%
[5]
  Percentage inhibition CSK: 12%
[6]
  Percentage inhibition TEK (Tie2): 88%
[7]
  Percentage inhibition RET: 48%
[8]
  Percentage inhibition KDR (VEGFR2): 68%
[9]
  Percentage inhibition IKBKB (IKK beta): 28%
[10]
  Percentage inhibition MAPK1 (ERK2): 6%
[11]
  Percentage inhibition NTRK1 (TRKA): 96%
[12]
  Percentage inhibition CSF1R (FMS): 41%
[13]
  Percentage inhibition PRKAA (PKA): 6%
[14]
  Percentage inhibition BTK: 10%
[15]
  Percentage inhibition FGFR1: 20%
[16]
  Percentage inhibition NTRK2 (TRKB): 103%
[17]
  Percentage inhibition JAK2: 23%
[18]
  Percentage inhibition PTK2 (FAK): 33%
[19]
  Percentage inhibition NUK1 (ARK5): 16%
[20]
  Percentage inhibition FLT1 (VEGFR1): 19%
[21]
  Percentage inhibition MERTK (cMER): 96%
[22]
  Percentage inhibition ABL1: 16%
[23]
  Percentage inhibition ROCK2: 5%
[24]
  Percentage inhibition KIT: 49%
[25]
  Percentage inhibition TYRO3 (RSE): 67%
[26]
  Percentage inhibition SYK: 11%
[27]
  Percentage inhibition AURKA (Aurora A): 11%
[28]
  Percentage inhibition ALK: 12%
[29]
  Percentage inhibition SRC: 16%
[30]
  Percentage inhibition PLK1: 4%
[31]
  Percentage inhibition TYK2: 5%
[32]
  Percentage inhibition FLT4 (VEGFR3): 33%
[33]
  Percentage inhibition ROS1: 77%
[34]
  Percentage inhibition PDGFRA (PDGFR alpha): 31%

## CN1CCN(Cc2cccc(-c3cnc4[nH]cc(-c5cc(NC(=O)Nc6ccccc6)ccc5F)c4c3)c2)CC1 [Compound 3]
[1]
  Percentage inhibition CHUK (IKKalpha): 4%
[2]
  Percentage inhibition AURKB (Aurora B): 38%
[3]
  Percentage inhibition PDGFRB (PDGFR beta): 19%
[4]
  Percentage inhibition JAK3: 13%
[5]
  Percentage inhibition CSK: 8%
[6]
  Percentage inhibition TEK (Tie2): 27%
[7]
  Percentage inhibition RET: 23%
[8]
  Percentage inhibition KDR (VEGFR2): 55%
[9]
  Percentage inhibition IKBKB (IKK beta): 13%
[10]
  Percentage inhibition MAPK1 (ERK2): 6%
[11]
  Percentage inhibition NTRK1 (TRKA): 69%
[12]
  Percentage inhibition CSF1R (FMS): 26%
[13]
  Percentage inhibition PRKAA (PKA): 7%
[14]
  Percentage inhibition BTK: 10%
[15]
  Percentage inhibition FGFR1: 27%
[16]
  Percentage inhibition NTRK2 (TRKB): 94%
[17]
  Percentage inhibition JAK2: 13%
[18]
  Percentage inhibition PTK2 (FAK): 24%
[19]
  Percentage inhibition NUK1 (ARK5): 14%
[20]
  Percentage inhibition FLT1 (VEGFR1): 19%
[21]
  Percentage inhibition MERTK (cMER): 75%
[22]
  Percentage inhibition ABL1: 22%
[23]
  Percentage inhibition ROCK2: 9%
[24]
  Percentage inhibition KIT: 15%
[25]
  Percentage inhibition TYRO3 (RSE): 19%
[26]
  Percentage inhibition SYK: 8%
[27]
  Percentage inhibition AURKA (Aurora A): 14%
[28]
  Percentage inhibition ALK: 17%
[29]
  Percentage inhibition SRC: 10%
[30]
  Percentage inhibition PLK1: 6%
[31]
  Percentage inhibition TYK2: 7%
[32]
  Percentage inhibition FLT4 (VEGFR3): 37%
[33]
  Percentage inhibition ROS1: 18%
[34]
  Percentage inhibition PDGFRA (PDGFR alpha): 21%
